Source: publication PMC11413503, “SCR‐7952, a highly selective MAT2A inhibitor, demonstrates synergistic antitumor activities in combination with the S‐adenosylmethionine‐competitive or the methylthioadenosine‐cooperative protein arginine methyltransferase 5 inhibitors in methylthioadenosine phosphorylase‐deleted tumors” (MedComm, 2024)

Key:
SERT = SERT (Homo sapiens, UniProt P31645); test: Mini-profiling panel, transporter; assay type: cell-based
Procedure: (§1) Further insight into selectivity was evaluated in a functional panel of 47 representative targets closely related to human life activities, including G protein‐coupled receptors, transporters, ion channels, kinases, nuclear hormone receptor targets, and nonkinase enzymes (Table S3).

DAT = DAT (Homo sapiens, UniProt Q01959); test: Mini-profiling panel, transporter; assay type: cell-based
Procedure: as §1

NET = NET (Homo sapiens, UniProt P23975); test: Mini-profiling panel, transporter; assay type: cell-based
Procedure: as §1

MAT2A = biological target: T1, MAT2A (Homo sapiens, UniProt P31153); test: SPR binding, single-cycle kinetics
T1 construct: purchased Pharmaron 210405‐HWR‐20210429
Procedure: SPR experiments were performed using a BIAcore 8K instrument (Cytiva) at 25°C. A series S sensor chip SA (Cytiva) was docked into the system in 20 mM Bicine‐Na, pH 7.5, 100 mM KCl, 5 mM MgCl2, 0.1 mM TCEP, 0.05% (w/w) Tween‐20, and 2% (v/v) DMSO. The MAT2A protein was captured by Penta‐anti‐His antibody, and the affinity of SCR‐7952 was tested over a suitable dose–response range (12.5–200 nM) by single‐cycle kinetics. The kinetic parameters of SCR‐7952 on MAT2A were fitted via a 1:1 binding model.

COX2 = COX2 (Homo sapiens, UniProt P35354); test: Mini-profiling panel, non-kinase enzyme; assay type: biochemical; details: Non-Kinase Enzymes; read-out: COX2 Inhibitor IC50
INSR = INSR (Homo sapiens, UniProt P06213); test: Mini-profiling panel, kinase; assay type: biochemical; details: Kinases; read-out: INSR Inhibitor IC50
PDE4D2 = PDE4D2 (Homo sapiens, UniProt Q08499); test: Mini-profiling panel, non-kinase enzyme; assay type: biochemical; details: Non-Kinase Enzymes; read-out: PDE4D2 Inhibitor IC50
OPRM1 = OPRM1 (Homo sapiens, UniProt P35372); test: Mini-profiling panel, GPCR; assay type: cell-based
Procedure: as §1

DRD2S = DRD2S (Homo sapiens, UniProt P14416); test: Mini-profiling panel, GPCR; assay type: cell-based
Procedure: as §1

OPRD1 = OPRD1 (Homo sapiens, UniProt P41143); test: Mini-profiling panel, GPCR; assay type: cell-based
Procedure: as §1

HTR2B = HTR2B (Homo sapiens, UniProt P41595); test: Mini-profiling panel, GPCR; assay type: cell-based
Procedure: as §1

CHRM1 = CHRM1 (Homo sapiens, UniProt P11229); test: Mini-profiling panel, GPCR; assay type: cell-based
Procedure: as §1

HTR2A = HTR2A (Homo sapiens, UniProt P28223); test: Mini-profiling panel, GPCR; assay type: cell-based
Procedure: as §1

ADRA2A = ADRA2A (Homo sapiens, UniProt P08913); test: Mini-profiling panel, GPCR; assay type: cell-based
Procedure: as §1

HTR1A = HTR1A (Homo sapiens, UniProt P08908); test: Mini-profiling panel, GPCR; assay type: cell-based
Procedure: as §1

ADRA1A = ADRA1A (Homo sapiens, UniProt P35348); test: Mini-profiling panel, GPCR; assay type: cell-based
Procedure: as §1

CHRM2 = CHRM2 (Homo sapiens, UniProt P08172); test: Mini-profiling panel, GPCR; assay type: cell-based
Procedure: as §1

CHRM3 = CHRM3 (Homo sapiens, UniProt P20309); test: Mini-profiling panel, GPCR; assay type: cell-based
Procedure: as §1

OPRK1 = OPRK1 (Homo sapiens, UniProt P41145); test: Mini-profiling panel, GPCR; assay type: cell-based
Procedure: as §1

AVPR1A = AVPR1A (Homo sapiens, UniProt P37288); test: Mini-profiling panel, GPCR; assay type: cell-based; details: GPCR Targets
[1] = Functional panel of 47 representative targets; details: at 10 µM
HCT116 MTAP−/− cells = test: Intracellular SAM inhibition assay; assay type: cell-based; details: Homo sapiens, HCT-116; HCT116 MTAP−/− cells, 6 h treatment; read-out: IC50, cellular SAM levels
Procedure: MAT2A inhibition in the cellular environment was monitored by measurement of the abundance of its product SAM in HCT116 MTAP ^−/− cells. HCT116 MTAP ^−/− cells were plated in 96‐well cell culture plates at 50,000 cells per well and allowed to attach overnight at 37°C in 5% CO2. Compounds were added in a dose–response format to generate a 10‐point dose–response curve. Doses were started at a 10 µM top concentration with 1:5 serial dilution. After 6 h of incubation, the medium was removed and cells were extracted with 50% methanol containing 1 M acetic acid for SAM metabolite measurement by UPLC‐MS/MS.
The standard SAM solution was prepared in a surrogate matrix of 50% methanol containing 1 M acetic acid with a concentration range of 3–1000 ng/mL. The quality control sample was prepared in the same surrogate matrix. SAM‐d 3 was used as the internal standard (IS). A Waters UPLC system coupled with a SCIEX Triple Quad™ 6500^+ mass spectrometer […] was used to analyze the samples. Samples were separated on an ACQUITY UPLC® BEH amide column (2.1 × 50 mm, 1.7 µm). The mobile phase consisted of 5% acetonitrile containing 5 mM NH4OAc and 1% (v/v) formic acid (A) and 95% acetonitrile containing 5 mM NH4OAc and 1% (v/v) formic acid (B). […] SAM and SAM‐d 3 were detected with multiple‐reaction monitoring of a mass transition pair at m/z 399.2/250.2 and […], respectively.

T1 sequence (P31153 whole entry): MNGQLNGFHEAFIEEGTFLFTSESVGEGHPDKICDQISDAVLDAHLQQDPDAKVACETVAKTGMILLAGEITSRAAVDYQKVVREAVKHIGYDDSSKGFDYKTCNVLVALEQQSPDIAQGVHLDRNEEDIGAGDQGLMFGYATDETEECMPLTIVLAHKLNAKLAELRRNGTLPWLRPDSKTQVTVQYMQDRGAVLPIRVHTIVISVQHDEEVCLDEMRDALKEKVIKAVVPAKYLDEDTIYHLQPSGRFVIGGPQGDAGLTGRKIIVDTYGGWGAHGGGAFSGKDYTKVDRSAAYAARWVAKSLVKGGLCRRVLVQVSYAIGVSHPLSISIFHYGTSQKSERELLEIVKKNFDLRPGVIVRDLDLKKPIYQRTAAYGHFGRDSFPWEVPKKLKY
Chain of CHRM1 (P11229 whole entry, species assumed): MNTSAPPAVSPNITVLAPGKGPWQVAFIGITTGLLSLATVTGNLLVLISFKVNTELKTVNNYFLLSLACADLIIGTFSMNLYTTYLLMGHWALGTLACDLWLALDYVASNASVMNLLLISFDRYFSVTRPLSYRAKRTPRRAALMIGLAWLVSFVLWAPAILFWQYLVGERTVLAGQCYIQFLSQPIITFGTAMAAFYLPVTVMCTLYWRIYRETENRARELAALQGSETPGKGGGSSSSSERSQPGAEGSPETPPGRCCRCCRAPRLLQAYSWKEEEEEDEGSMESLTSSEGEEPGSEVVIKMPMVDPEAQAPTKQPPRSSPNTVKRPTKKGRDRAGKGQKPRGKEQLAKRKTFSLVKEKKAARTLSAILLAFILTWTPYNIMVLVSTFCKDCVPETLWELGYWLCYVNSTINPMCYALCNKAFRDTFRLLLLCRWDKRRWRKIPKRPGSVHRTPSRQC
Chain of OPRK1 (P41145 whole entry, species assumed): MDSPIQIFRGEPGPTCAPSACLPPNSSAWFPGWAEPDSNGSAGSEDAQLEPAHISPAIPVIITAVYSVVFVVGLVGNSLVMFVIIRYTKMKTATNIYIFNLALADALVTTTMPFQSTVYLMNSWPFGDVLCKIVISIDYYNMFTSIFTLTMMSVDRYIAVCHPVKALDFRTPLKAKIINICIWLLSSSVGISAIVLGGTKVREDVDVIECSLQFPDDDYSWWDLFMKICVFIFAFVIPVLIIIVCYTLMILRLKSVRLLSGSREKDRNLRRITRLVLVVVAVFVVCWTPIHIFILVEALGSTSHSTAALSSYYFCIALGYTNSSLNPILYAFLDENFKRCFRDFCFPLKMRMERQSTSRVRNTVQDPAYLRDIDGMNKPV
Chain of HTR2A (P28223 whole entry): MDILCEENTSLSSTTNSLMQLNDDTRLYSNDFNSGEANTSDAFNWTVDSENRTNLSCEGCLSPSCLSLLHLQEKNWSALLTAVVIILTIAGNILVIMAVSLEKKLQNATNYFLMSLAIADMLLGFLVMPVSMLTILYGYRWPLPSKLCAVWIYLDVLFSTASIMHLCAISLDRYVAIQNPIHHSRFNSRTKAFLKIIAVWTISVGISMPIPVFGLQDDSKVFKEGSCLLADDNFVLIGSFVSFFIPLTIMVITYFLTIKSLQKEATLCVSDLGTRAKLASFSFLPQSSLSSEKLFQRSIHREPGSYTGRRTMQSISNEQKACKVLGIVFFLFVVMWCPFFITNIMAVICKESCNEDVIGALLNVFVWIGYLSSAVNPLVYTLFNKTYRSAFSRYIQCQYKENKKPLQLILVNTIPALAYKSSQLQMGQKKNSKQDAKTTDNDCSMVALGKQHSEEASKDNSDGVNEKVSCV
Chain of CHRM3 (P20309 whole entry, species assumed): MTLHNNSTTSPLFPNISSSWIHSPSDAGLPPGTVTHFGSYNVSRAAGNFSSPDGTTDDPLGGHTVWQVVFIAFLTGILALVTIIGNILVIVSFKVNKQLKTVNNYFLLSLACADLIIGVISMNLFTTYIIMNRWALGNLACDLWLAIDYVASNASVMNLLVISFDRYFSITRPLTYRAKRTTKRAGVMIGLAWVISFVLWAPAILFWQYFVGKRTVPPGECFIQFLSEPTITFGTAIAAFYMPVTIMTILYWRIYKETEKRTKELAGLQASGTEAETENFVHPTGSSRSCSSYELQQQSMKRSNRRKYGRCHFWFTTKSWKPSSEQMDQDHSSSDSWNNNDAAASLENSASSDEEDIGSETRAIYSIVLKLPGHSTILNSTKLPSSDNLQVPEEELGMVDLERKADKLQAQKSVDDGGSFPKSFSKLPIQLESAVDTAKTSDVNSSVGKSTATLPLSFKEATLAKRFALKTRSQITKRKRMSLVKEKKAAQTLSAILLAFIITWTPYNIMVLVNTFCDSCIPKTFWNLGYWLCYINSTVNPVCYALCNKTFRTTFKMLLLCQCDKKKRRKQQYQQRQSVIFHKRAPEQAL
Chain of DRD2S (P14416 1-414 isoform P14416-2): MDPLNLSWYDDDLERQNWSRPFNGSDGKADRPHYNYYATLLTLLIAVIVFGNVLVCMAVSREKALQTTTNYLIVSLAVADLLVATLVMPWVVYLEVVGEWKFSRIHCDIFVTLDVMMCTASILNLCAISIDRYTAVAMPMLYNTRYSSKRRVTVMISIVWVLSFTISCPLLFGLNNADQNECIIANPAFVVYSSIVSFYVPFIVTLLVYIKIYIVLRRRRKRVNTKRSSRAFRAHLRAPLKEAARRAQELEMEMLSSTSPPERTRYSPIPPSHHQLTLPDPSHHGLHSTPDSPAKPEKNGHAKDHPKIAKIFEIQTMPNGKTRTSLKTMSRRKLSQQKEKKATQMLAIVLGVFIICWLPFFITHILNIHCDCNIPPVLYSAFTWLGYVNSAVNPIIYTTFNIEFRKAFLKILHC
Chain of CHRM2 (P08172 whole entry, species assumed): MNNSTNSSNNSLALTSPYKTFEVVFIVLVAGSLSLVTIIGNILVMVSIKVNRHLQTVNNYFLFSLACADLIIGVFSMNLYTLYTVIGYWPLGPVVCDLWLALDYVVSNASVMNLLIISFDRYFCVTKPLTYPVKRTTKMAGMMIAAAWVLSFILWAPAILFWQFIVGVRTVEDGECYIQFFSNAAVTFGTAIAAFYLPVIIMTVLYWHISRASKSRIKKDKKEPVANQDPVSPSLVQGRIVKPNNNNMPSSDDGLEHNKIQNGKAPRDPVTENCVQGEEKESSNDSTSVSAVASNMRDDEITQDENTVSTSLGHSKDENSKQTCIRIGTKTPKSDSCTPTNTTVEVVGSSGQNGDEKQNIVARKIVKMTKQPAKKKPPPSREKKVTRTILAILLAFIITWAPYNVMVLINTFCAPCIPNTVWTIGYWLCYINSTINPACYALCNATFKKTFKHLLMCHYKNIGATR
Chain of ADRA2A (P08913 whole entry, species assumed): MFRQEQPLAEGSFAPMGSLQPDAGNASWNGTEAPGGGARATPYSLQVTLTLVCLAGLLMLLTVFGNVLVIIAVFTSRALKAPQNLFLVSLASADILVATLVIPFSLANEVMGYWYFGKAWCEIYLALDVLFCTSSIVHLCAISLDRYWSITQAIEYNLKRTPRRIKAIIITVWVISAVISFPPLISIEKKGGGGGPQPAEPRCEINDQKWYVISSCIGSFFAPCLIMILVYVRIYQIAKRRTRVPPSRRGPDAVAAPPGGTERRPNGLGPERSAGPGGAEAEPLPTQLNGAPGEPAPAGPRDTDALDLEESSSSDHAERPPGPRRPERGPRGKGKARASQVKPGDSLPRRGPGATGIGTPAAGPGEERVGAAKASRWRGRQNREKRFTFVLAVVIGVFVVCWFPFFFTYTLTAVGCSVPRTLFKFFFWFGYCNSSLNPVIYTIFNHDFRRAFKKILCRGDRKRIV
Chain of OPRD1 (P41143 whole entry, species assumed): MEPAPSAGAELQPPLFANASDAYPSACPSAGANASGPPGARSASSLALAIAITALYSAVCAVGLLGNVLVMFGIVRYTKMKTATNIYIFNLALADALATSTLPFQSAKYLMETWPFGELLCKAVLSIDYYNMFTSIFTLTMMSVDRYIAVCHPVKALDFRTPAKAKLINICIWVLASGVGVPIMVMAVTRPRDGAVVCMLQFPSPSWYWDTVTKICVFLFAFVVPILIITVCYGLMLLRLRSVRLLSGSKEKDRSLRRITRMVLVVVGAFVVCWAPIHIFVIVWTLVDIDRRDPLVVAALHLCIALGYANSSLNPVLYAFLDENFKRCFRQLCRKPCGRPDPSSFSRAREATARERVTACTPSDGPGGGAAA
Chain of HTR1A (P08908 whole entry, species assumed): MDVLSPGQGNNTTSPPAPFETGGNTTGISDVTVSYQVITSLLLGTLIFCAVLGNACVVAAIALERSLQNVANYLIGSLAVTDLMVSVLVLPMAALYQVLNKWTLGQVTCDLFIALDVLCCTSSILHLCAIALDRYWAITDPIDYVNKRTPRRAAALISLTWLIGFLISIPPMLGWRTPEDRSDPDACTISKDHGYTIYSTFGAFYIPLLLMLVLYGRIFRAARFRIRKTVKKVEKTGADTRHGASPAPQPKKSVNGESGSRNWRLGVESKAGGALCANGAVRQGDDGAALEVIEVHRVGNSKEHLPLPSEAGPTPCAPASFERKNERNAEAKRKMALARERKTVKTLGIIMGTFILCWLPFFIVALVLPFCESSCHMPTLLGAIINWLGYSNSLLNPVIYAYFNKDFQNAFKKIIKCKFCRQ
Chain of HTR2B (P41595 whole entry, species assumed): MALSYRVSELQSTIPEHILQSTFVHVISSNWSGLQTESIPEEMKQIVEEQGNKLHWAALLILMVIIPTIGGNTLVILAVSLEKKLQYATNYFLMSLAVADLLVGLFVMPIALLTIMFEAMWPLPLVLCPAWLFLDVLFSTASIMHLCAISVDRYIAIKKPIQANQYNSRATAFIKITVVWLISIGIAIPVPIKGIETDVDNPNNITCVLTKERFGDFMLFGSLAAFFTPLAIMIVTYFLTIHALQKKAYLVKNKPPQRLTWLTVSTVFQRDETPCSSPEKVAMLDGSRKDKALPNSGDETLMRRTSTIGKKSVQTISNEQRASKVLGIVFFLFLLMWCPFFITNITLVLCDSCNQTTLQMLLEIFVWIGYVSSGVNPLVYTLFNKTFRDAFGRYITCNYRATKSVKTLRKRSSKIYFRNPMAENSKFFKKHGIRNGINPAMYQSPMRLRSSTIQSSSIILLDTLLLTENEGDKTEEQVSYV

Cn1cnc2c(=O)n(-c3cccnc3C3CC3)c3cc(Cl)ccc3c21 [SCR‐7952, 7‐chloro‐5‐(2‐cyclopropylpyridin‐3‐yl)‐1‐methyl‐1,5‐dihydro‐4H‐imidazo[4,5‐c]quinolin‐4‐one]
IC50 (SERT): > 10 µM
IC50 (DAT): > 10 µM
IC50 (NET): > 10 µM
Kd (MAT2A; read-out: dissociation equilibrium constant KD): 0.00056 µM
kon (MAT2A; single-cycle kinetic model, read-out: association rate constant ka): 86700 M⁻¹ s⁻¹
koff (MAT2A; single-cycle kinetic model, read-out: dissociation rate constant kd): 4.83e-05 s⁻¹
IC50 (COX2): > 10 µM
IC50 (INSR): > 10 µM
IC50 (PDE4D2): > 10 µM
EC50 (OPRM1): > 10 µM
IC50 (OPRM1): > 10 µM
EC50 (DRD2S): > 10 µM
IC50 (DRD2S): > 10 µM
EC50 (OPRD1): > 10 µM
IC50 (OPRD1): > 10 µM
EC50 (HTR2B): > 10 µM
IC50 (HTR2B): > 10 µM
EC50 (CHRM1): > 10 µM
IC50 (CHRM1): > 10 µM
EC50 (HTR2A): > 10 µM
IC50 (HTR2A): > 10 µM
EC50 (ADRA2A): > 10 µM
IC50 (ADRA2A): > 10 µM
EC50 (HTR1A): > 10 µM
IC50 (HTR1A): > 10 µM
EC50 (ADRA1A): > 10 µM
IC50 (ADRA1A): > 10 µM
EC50 (CHRM2): > 10 µM
IC50 (CHRM2): > 10 µM
EC50 (CHRM3): > 10 µM
IC50 (CHRM3): > 10 µM
EC50 (OPRK1): > 10 µM
IC50 (OPRK1): > 10 µM
EC50 (AVPR1A; read-out: AVPR1A Agonism EC50): > 10 µM
IC50 (AVPR1A; read-out: AVPR1A Antagonism IC50): > 10 µM
agonistic or antagonistic activities on 47 targets [1]: did not exhibit significant pharmacological effects
IC50 (HCT116 MTAP−/− cells): 0.0019 µM
